Results: patent US6372728B1, “Formulation for treatment of osteoporosis” (AstraZeneca AB, priority 1997, dated 2002)
Read-outs that look alike come from different tables or passages of the source.

Columns and labels:
[1] = taken either concurrently with or 2 hours after breakfast; cited from earlier work
[2] = tested on: bone resorption in the TPTX rats; details: TPTX rat; for decrease in blood levels of Ca2+ (FIG. 2): 0.01-5 mgP/kg
Protocol: Female Spraque-Dawley rats from Molegaards Breeding Centre, Skensved, Denmark were used in the experiments. The animals were kept three by three in Macrolon cages, with free access to standard rat food pellets and tap water during the whole experiment. TPTX (Thyroparathyroidectomy) was preformed during anaesthesia with xylazine (Rompun®, 20 mg/ml, 0.25 ml/kg, intraperitoneally (i.p.)) and ketamine (Ketalar®, 50 mg/ml, 2.0 ml/kg, i.p.). After TPTX all rats were supplemented with 4 μg/kg thyroxin subcutaneously three times a week. TPTX adequacy was checked by determination of blood levels of Ca^2+ in a blood samples obtained from the vein of the tail 5-6 days after surgery. TPTX was considered successful if blood Ca^2+ was ≦80% of the concentration found in the rats before surgery.
Bone resorption in the TPTX rats was stimulated by the arotinoid ethyl p-[(E)-2-(5,6,7,8-tetrahydro-5,5,8,8-tetramethyl-2-naphtyl)penyl]-benzoate (RO 13-6298, a gift from Hoffman-La Roche AG, Basel, Switzerland). RO 13-6298 was administered subcutaneously once daily (100 μg/kg in 1 ml/kg solved in polyethylene glycol 300 containing 10% ethanol) for three consecutive days (days 1, 2 and 3), day 1 being five to six days after TPTX.

In the case of `NCCCC(O)(P(=O)(O)O)P(=O)(O)O` [alendronate, 4-amino-1-hydroxybutylidene-1,1-biphosphonic acid], the impairment of availability [1] is given as over 85%, the “decrease of blood levels of Ca2+ compared to rats treated with only saline” value ([2]; 24 hours after the third oral dose, 1 mgP/kg, dissolved in saline (0.9% NaCl), free access to food) is given as “no significant decrease” and the “decrease in blood levels of Ca2+ (FIG. 2)” value ([2]; saline i.v.) is given as “dose-dependent decrease”. The “decrease in blood levels of Ca2+ (FIG. 2)” value ([2]; saline p.o.) was “dose-dependent decrease”.
